These results are taken from patent US7560102B2, “Method for reducing neuronal degeneration so as to ameliorate the effects of injury or disease” (Yeda Research and Development Co., Ltd, priority 1998, dated 2009).

The test system of assay [1] is retinal ganglion cells (RGCs). Put plainly: Optic nerve crush injury after immunization with MOG p35-55, retrograde labeling of RGCs. The note with it: 50 μg/animal with IFA intradermally in footpads ten days prior to crush; two weeks after injury. The class given is in vivo, rat. Here is the method: FIG. 10 is a graph illustrating inhibition of secondary degeneration after optic nerve crush injury in adult rats. See text, Example 3, for experimental details. Rats were injected intradermally through the footpads with a 21-mer peptide based on MOG amino acid residues 35-55 (MOG p35-55) (([…], chemically synthesized at the Weizmann Institute of Science, Rehovot, Israel) or PBS ten days prior to optic nerve crush injury or MOG p35-55 in the absence of crush injury. MOG p35-55 was administered with IFA. Surviving optic nerve fibers were monitored by retrograde labeling of RGCs. The number of RGCs in rats injected with PBS or MOG p35-55 was expressed as a percentage of the total number of neurons in rats injected with MOG p35-55 in the absence of crush injury.
Rats were injected intradermally in the footpads with MOG p35-55 (50 μg/animal) and IFA, or PBS, ten days prior to optic nerve crush injury. RGCs were assessed two weeks after injury using retrograde labeling as described above. The number of RGCs in rats injected with PBS or MOG p35-55 was expressed as a percentage of the total number of neurons in rats injected with MOG p35-55 in the absence of crush injury.

The test system of assay [2] is contused spinal cord. Put plainly: Spinal cord contusion, post-traumatic immunization with Nogo p472, BBB hindlimb motor score. The format is in vivo, SPD rats.
Assay [3] relates to retinal ganglion cells (RGCs). As to the kind of experiment: Optic nerve crush injury after oral MBP, retrograde labeling of RGCs. The format is in vivo, Lewis rats. The note with it: fed antigen from ten days before mild crush injury (FIG. 14).
Method: MBP (Sigma, Israel) (1 mg in 0.5 ml saline) was administered orally to adult rats by gavage using a blunt needle. MBP was administered 5 times, i.e., every third day beginning two weeks prior to optic nerve crush injury. Surviving optic nerve fibers were monitored by retrograde labeling of RGCs. The number of RGCs in treated rats was expressed as a percentage of the total number of neurons in untreated rats following the injury.
Lewis rats were fed 1 mg MBP daily, or every other day, or 4 times a day at two-hour intervals for five consecutive days. Control animals were given PBS or the non-self antigen OVA Sigma, Israel). Ten days after the start of MBP ingestion, the right optic nerves were subjected to a calibrated mild crush injury. Two weeks later the RGCs were retrogradely labelled by application of the fluorescent lipophilic dye 4-Di-10-Asp(Molecular Probes Europe BV, Netherlands), distally to the site of injury, as described. […] Six days after dye application, the retina was detached from the eye, prepared as a flattened whole mount in 4% paraformaldehyde solution, and examined for labeled RGCs by fluorescence microscopy. RGCs were counted from three different regions in the retina. The results are expressed as normalized percentage of each retina to untreated injured animal mean of the same experiment. […]

For the molecule “MOG p35-55: 21-mer peptide based on amino acids 35-55 of MOG, chemically synthesized, given with IFA (MEVGWYRSPFSRVVHLYRNGK; given with IFA; UniProt Q61885 63-83, looked up, fragment)”, the “number of labeled RGCs compared to animals receiving PBS” value in assay [1] is “about 12.5 fold”. Consider “p472: 18-mer peptide, residues 623-640 of rat Nogo-A (SEQ ID NO:19), emulsified in CFA (SYDSIKLEPENPPPYEEA; emulsified in CFA; listed as Rattus norvegicus)”, for which the “overall functional recovery compared to control rats (PBS in CFA or PBS only)” value in assay [2] (100 μg/rat in CFA s.c. after contusion, female and male rats, P<0.01) is reported as “significantly improved”. Further, the “day from which hind limb locomotion was significantly better than PBS-treated controls” value in assay [2] (female rats, 50 mm, boosted one week after injury) was 25 days. The “day after injury from which locomotor performance was significantly better than PBS+CFA-treated controls” value in assay [2] (male rats) amounted to 11 days.

B1: OVA: non-self antigen ovalbumin (Sigma) fed to control rats (protein, UniProt P01012 2-386, looked up)
Ovalbumin: GSIGAASMEFCFDVFKELKVHHANENIFYCPIAIMSALAMVYLGAKDSTRTQINKVVRFDKLPGFGDSIEAQCGTSVNVHSSLRDILNQITKPNDVYSFSLASRLYAEERYPILPEYLQCVKELYRGGLEPINFQTAADQARELINSWVESQTNGIIRNVLQPSSVDSQTAMVLVNAIVFKGLWEKAFKDEDTQAMPFRVTEQESKPVQMMYQIGLFRVASMASEKMKILELPFASGTMSMLVLLPDEVSGLEQLESIINFEKLTEWTSSNVMEERKIKVYLPRMKMEEKYNLTSVLMAMGITDVFSSSANLSGISSAESLKISQAVHAAHAEINEAGREVVGSAEAGVDAASVSEEFRADHPFLFCIKHIATNAVLFFGRCVSP
For B1, the “number of surviving RGCs two weeks after optic nerve injury vs control group” value in assay [3] is recorded as “ns”.
